Data taken from patent US11986471B2, “Compounds and methods of use” (Tango Therapeutics, Inc., priority 2018, dated 2024).

How the values were obtained:
PRMT5 [1] = target: T1, PRMT5 (Homo sapiens, UniProt O14744); test: PRMT5 IC50 assay in the presence of MTA as cofactor; assay type: biochemical; conditions: for IC50: PRMT5, MTA as cofactor; for SAM/MTA Ratio: ratio between the Ki in the presence of SAM and the Ki in the presence of MTA
T1 construct: purchased Viva (custom protein)
In short: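 Each compound is tested on PRMT5 in the presence of SAM, of MTA, and without any cofactor. Ki values are then back-calculated using fixed factors of 1.5 (SAM) and 13.5 (MTA), and the two Ki values are compared as a ratio.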

PRMT5 [2] = target: T1, PRMT5; test: PRMT5 IC50 assay with no cofactor; assay type: biochemical
In short: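 Three cofactor conditions tested for PRMT5 inhibition: none, MTA and SAM, each giving an IC50. For conversion to Ki, the MTA-condition IC50 is divided by 13.5 and the SAM-condition IC50 by 1.5, and the two Ki values are expressed as a SAM/MTA ratio.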

HAP1 MTAP-intact = test: SDMA in-cell western assay, HAP1 MTAP-intact cell line; assay type: cell-based; conditions: Homo sapiens
In short: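 Cells from two matched HAP1 lines, MTAP-null and MTAP-expressing at endogenous levels, are treated with compound. SDMA is then quantified by in-cell western and an IC50 is calculated for each line.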

HAP1 MTAP-deleted = test: SDMA in-cell western assay, HAP1 MTAP-deleted cell line; assay type: cell-based; conditions: for IC50: Homo sapiens, HAP1 MTAP-deleted cell line; for MTAP Intact/Deleted Ratio: IC50 ratio HAP1 MTAP-intact / HAP1 MTAP-deleted
In short: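 MTAP-null HAP1 cells, the deleted member of an isogenic pair with endogenously MTAP-expressing HAP1, are treated with compound. SDMA is then quantified by in-cell western and an IC50 is calculated.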

PRMT5 [3] = target: T1, PRMT5; test: PRMT5 IC50 assay in the presence of SAM as cofactor; assay type: biochemical
In short: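 Values reflect IC50 (μM) on human PRMT5 under three cofactor states. Selectivity is derived as the quotient of SAM-state Ki over MTA-state Ki, with each Ki obtained from its IC50.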

T1 sequence (O14744 whole entry): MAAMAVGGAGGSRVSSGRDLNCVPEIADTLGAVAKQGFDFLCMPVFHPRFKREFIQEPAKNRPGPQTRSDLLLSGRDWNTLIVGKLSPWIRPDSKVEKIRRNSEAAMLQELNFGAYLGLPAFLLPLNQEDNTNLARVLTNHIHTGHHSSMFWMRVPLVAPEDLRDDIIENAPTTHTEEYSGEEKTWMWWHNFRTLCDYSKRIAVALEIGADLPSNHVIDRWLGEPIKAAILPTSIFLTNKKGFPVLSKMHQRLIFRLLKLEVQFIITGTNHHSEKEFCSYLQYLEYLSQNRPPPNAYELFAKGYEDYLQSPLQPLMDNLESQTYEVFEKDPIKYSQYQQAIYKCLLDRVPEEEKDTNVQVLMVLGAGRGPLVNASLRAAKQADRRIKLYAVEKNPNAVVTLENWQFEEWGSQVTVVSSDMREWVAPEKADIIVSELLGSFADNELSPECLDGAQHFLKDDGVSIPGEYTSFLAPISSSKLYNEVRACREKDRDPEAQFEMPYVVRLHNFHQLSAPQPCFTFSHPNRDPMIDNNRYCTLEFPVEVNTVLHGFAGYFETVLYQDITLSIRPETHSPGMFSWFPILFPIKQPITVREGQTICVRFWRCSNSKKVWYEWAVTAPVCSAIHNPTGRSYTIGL
T1 sequence (Q9BQA1 whole entry partner): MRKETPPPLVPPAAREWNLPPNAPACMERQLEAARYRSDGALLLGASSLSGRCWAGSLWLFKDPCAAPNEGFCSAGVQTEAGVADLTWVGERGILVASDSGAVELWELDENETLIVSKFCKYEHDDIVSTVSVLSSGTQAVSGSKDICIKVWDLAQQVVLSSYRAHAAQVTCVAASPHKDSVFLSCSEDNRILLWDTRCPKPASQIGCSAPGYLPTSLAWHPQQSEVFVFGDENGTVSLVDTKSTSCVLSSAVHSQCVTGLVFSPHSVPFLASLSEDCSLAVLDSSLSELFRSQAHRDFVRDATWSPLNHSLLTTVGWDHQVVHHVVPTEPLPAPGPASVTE

Compound: CC(C)C(=O)N1CC(Nc2cc(C(=O)NC[C@H](O)CN3CCc4cc(OCc5cnco5)ccc4C3)ccn2)C1 [Compound 479, N-[(2S)-2-hydroxy-3-[6-(oxazol-5-ylmethoxy)-3,4-dihydro-1H-isoquinolin-2-yl]propyl]-2-[[1-(2-methylpropanoyl)azetidin-3-yl]amino]pyridine-4-carboxamide]
- IC50 (PRMT5 [1]): 50 to 500 nM
- SAM/MTA Ratio (PRMT5 [1]): A (a Ki ratio greater than or equal to 10 fold between the Ki in the presence of SAM and the Ki in the presence of MTA)
- IC50 (PRMT5 [2]): ≥ 5000 nM
- IC50 (HAP1 MTAP-intact): 1000 to 10000 nM
- IC50 (HAP1 MTAP-deleted): 1000 to 10000 nM
- MTAP Intact/Deleted Ratio (HAP1 MTAP-deleted): C* (an IC50 ratio of less than 3 fold between the IC50 in the HAP1 MTAP-intact cell line and the HAP1 MTAP-deleted cell line)
- IC50 (PRMT5 [3]): 500 to 5000 nM

Compound: CCCN(C)c1cc(C(=O)NC[C@H](O)CN2CCc3c(ccc(OCc4ocnc4C)c3C)C2)cc(NC2CCC2)n1 [Compound 480, 2-(cyclobutylamino)-N-[(2S)-2-hydroxy-3-{5-methyl-6-[(4-methyl-1,3-oxazol-5-yl)methoxy]-1,2,3,4-tetrahydroisoquinolin-2-yl}propyl]-6-[methyl(propyl)amino]pyridine-4-carboxamide]
- IC50 (PRMT5 [1]): 50 to 500 nM
- SAM/MTA Ratio (PRMT5 [1]): A (a Ki ratio greater than or equal to 10 fold between the Ki in the presence of SAM and the Ki in the presence of MTA)
- IC50 (PRMT5 [2]): ≥ 5000 nM
- IC50 (HAP1 MTAP-intact): ≥ 10000 nM
- IC50 (HAP1 MTAP-deleted): ≥ 10000 nM
- MTAP Intact/Deleted Ratio (HAP1 MTAP-deleted): C* (an IC50 ratio of less than 3 fold between the IC50 in the HAP1 MTAP-intact cell line and the HAP1 MTAP-deleted cell line)
- IC50 (PRMT5 [3]): 50 to 500 nM

Compound: CC(C)C(=O)N1CCN(c2cc(C(=O)NC[C@H](O)CN3CCc4cc(OCc5cnco5)ccc4C3)cc(NC3CCC3)n2)CC1 [Compound 481, (S)-2-(cyclobutylamino)-N-(2-hydroxy-3-(6-(oxazol-5-ylmethoxy)-3,4-dihydroisoquinolin-2(1H)-yl)propyl)-6-(4-isobutyrylpiperazin-1-yl)isonicotinamide]
- IC50 (PRMT5 [1]): 50 to 500 nM
- SAM/MTA Ratio (PRMT5 [1]): A (a Ki ratio greater than or equal to 10 fold between the Ki in the presence of SAM and the Ki in the presence of MTA)
- IC50 (PRMT5 [2]): 500 to 5000 nM
- IC50 (HAP1 MTAP-intact): < 1000 nM
- IC50 (HAP1 MTAP-deleted): < 1000 nM
- MTAP Intact/Deleted Ratio (HAP1 MTAP-deleted): C* (an IC50 ratio of less than 3 fold between the IC50 in the HAP1 MTAP-intact cell line and the HAP1 MTAP-deleted cell line)
- IC50 (PRMT5 [3]): 50 to 500 nM

Compound: O=C(NC[C@H](O)CN1CCc2c(ccc(OCc3cnco3)c2Cl)C1)c1ccc(OC2CCOCC2)cc1 [Compound 482, (S)—N-(3-(5-chloro-6-(oxazol-5-ylmethoxy)-3,4-dihydroisoquinolin-2(1H)-yl)-2-hydroxypropyl)-4-((tetrahydro-2H-pyran-4-yl)oxy)benzamide]
- IC50 (PRMT5 [1]): 500 to 5000 nM
- SAM/MTA Ratio (PRMT5 [1]): A (a Ki ratio greater than or equal to 10 fold between the Ki in the presence of SAM and the Ki in the presence of MTA)
- IC50 (PRMT5 [2]): ≥ 5000 nM
- IC50 (HAP1 MTAP-intact): ≥ 10000 nM
- IC50 (HAP1 MTAP-deleted): ≥ 10000 nM
- MTAP Intact/Deleted Ratio (HAP1 MTAP-deleted): C* (an IC50 ratio of less than 3 fold between the IC50 in the HAP1 MTAP-intact cell line and the HAP1 MTAP-deleted cell line)
- IC50 (PRMT5 [3]): 500 to 5000 nM

Compound: O=C(NC[C@H](O)CN1CCc2c(ccc(OCc3cnco3)c2Cl)C1)c1ccnc(N[C@H]2CC[C@H](C(F)(F)F)CC2)c1 [Compound 483, N—((S)-3-(5-chloro-6-(oxazol-5-ylmethoxy)-3N-dihydroisoquinolin-2(1H)-yl)-2-hydroxypropyl)-2-(((1RNS)-4-(trifluoromethyl)cyclohexy)amino)isonicotinamide]
- IC50 (PRMT5 [1]): 50 to 500 nM
- SAM/MTA Ratio (PRMT5 [1]): A (a Ki ratio greater than or equal to 10 fold between the Ki in the presence of SAM and the Ki in the presence of MTA)
- IC50 (PRMT5 [2]): ≥ 5000 nM
- IC50 (HAP1 MTAP-intact): ≥ 10000 nM
- IC50 (HAP1 MTAP-deleted): 1000 to 10000 nM
- MTAP Intact/Deleted Ratio (HAP1 MTAP-deleted): C* (an IC50 ratio of less than 3 fold between the IC50 in the HAP1 MTAP-intact cell line and the HAP1 MTAP-deleted cell line)
- IC50 (PRMT5 [3]): 500 to 5000 nM

Compound: Cc1c(OCc2cnco2)ccc2c1CCN(C[C@@H](O)CNC(=O)c1ccnc(NC3CCN(C(=O)C4CC4)CC3)c1)C2 [Compound 484, (S)-2-((1-(cyclopropanecarbonyl)piperidin-4-yl)amino)-N-(2-hydroxy-3-(5-methyl-6-(oxazol-5-ylmethoxy)-3N-dihydroisoquinolin-2(1H)-yl)propyl)isonicotinamide]
- IC50 (PRMT5 [1]): 50 to 500 nM
- SAM/MTA Ratio (PRMT5 [1]): A (a Ki ratio greater than or equal to 10 fold between the Ki in the presence of SAM and the Ki in the presence of MTA)
- IC50 (PRMT5 [2]): 500 to 5000 nM
- IC50 (HAP1 MTAP-intact): ≥ 10000 nM
- IC50 (HAP1 MTAP-deleted): 1000 to 10000 nM
- MTAP Intact/Deleted Ratio (HAP1 MTAP-deleted): B* (an IC50 ratio greater than or equal to 3 fold but lower than 10 fold between the IC50 in the HAP1 MTAP-intact cell line and the HAP1 MTAP-deleted cell line)
- IC50 (PRMT5 [3]): 50 to 500 nM

Compound: Cc1ncoc1COc1ccc2c(c1)CCN(C[C@@H](O)CNC(=O)c1cc(NC3CCC3)nc(N3CCN(C)CC3)c1)C2 [Compound 485, 2-(cyclobutylamino)-N-[(2S)-2-hydroxy-3-{6-[(4-methyl-1,3-oxazol-5-yl)methoxy]-1,2,3,4-tetrahydroisoquinolin-2-yl}propyl]-6-(4-methylpiperazin-1-yl)pyridine-4-carboxamide]
- IC50 (PRMT5 [1]): 50 to 500 nM
- SAM/MTA Ratio (PRMT5 [1]): A (a Ki ratio greater than or equal to 10 fold between the Ki in the presence of SAM and the Ki in the presence of MTA)
- IC50 (PRMT5 [2]): 500 to 5000 nM
- IC50 (HAP1 MTAP-intact): < 1000 nM
- IC50 (HAP1 MTAP-deleted): < 1000 nM
- MTAP Intact/Deleted Ratio (HAP1 MTAP-deleted): C* (an IC50 ratio of less than 3 fold between the IC50 in the HAP1 MTAP-intact cell line and the HAP1 MTAP-deleted cell line)
- IC50 (PRMT5 [3]): 50 to 500 nM

Compound: Cc1c(OCc2cnco2)ccc2c1CCN(C[C@@H](O)CNC(=O)c1ccnc(NC3CC4CCCC43)c1)C2 (stereo partly drawn) [Compound 486, 2-(bicyclo[3.2.0]heptan-6-ylamino)-N—((S)-2-hydroxy-3-(5-methyl-6-(oxazol-5-ylmethoxy)-3,4-dihydroisoquinolin-2(1H)-yl)propyl)isonicotinamide]
- IC50 (PRMT5 [1]): 50 to 500 nM
- SAM/MTA Ratio (PRMT5 [1]): A (a Ki ratio greater than or equal to 10 fold between the Ki in the presence of SAM and the Ki in the presence of MTA)
- IC50 (PRMT5 [2]): ≥ 5000 nM
- IC50 (HAP1 MTAP-intact): ≥ 10000 nM
- IC50 (HAP1 MTAP-deleted): 1000 to 10000 nM
- MTAP Intact/Deleted Ratio (HAP1 MTAP-deleted): C* (an IC50 ratio of less than 3 fold between the IC50 in the HAP1 MTAP-intact cell line and the HAP1 MTAP-deleted cell line)
- IC50 (PRMT5 [3]): 50 to 500 nM

Compound: Cc1c(OCc2cnco2)ccc2c1CCN(C[C@@H](O)CNC(=O)c1ccnc(N[C@H]3C[C@@H](CO)C3)c1)C2 [Compound 487]
- IC50 (PRMT5 [1]): 50 to 500 nM
- SAM/MTA Ratio (PRMT5 [1]): A (a Ki ratio greater than or equal to 10 fold between the Ki in the presence of SAM and the Ki in the presence of MTA)
- IC50 (PRMT5 [2]): ≥ 5000 nM
- IC50 (HAP1 MTAP-intact): ≥ 10000 nM
- IC50 (HAP1 MTAP-deleted): ≥ 10000 nM
- MTAP Intact/Deleted Ratio (HAP1 MTAP-deleted): C* (an IC50 ratio of less than 3 fold between the IC50 in the HAP1 MTAP-intact cell line and the HAP1 MTAP-deleted cell line)
- IC50 (PRMT5 [3]): 50 to 500 nM

Compound: Cc1ncoc1COc1ccc2c(c1C)CCN(C[C@@H](O)CNC(=O)c1cccc(NC3CCC3)c1)C2 [Compound 488, 3-(cyclobutylamino)-N-[(2S)-2-hydroxy-3-{5-methyl-6-[(4-methyl-1,3-oxazol-5-yl)methoxy]-1,2,3,4-tetrahydroisoquinolin-2-yl}propyl]benzamide]
- IC50 (PRMT5 [1]): 50 to 500 nM
- SAM/MTA Ratio (PRMT5 [1]): A (a Ki ratio greater than or equal to 10 fold between the Ki in the presence of SAM and the Ki in the presence of MTA)
- IC50 (PRMT5 [2]): ≥ 5000 nM
- IC50 (HAP1 MTAP-intact): ≥ 10000 nM
- IC50 (HAP1 MTAP-deleted): 1000 to 10000 nM
- MTAP Intact/Deleted Ratio (HAP1 MTAP-deleted): C* (an IC50 ratio of less than 3 fold between the IC50 in the HAP1 MTAP-intact cell line and the HAP1 MTAP-deleted cell line)
- IC50 (PRMT5 [3]): 500 to 5000 nM
